Results on 5 molecules are retold here after PubChem BioAssay AID1259407 (Chemical Carcinogenesis Research Information System (CCRIS), 2018).

Activity calls are given as the source filed them. How the calls were made is not given here.

The test system of this data set is CCRIS mutagenicity, Ames/micronucleus/aberration tests. In words: CCRIS mutagenicity studies.
Where [1] appears, read: Test System: AMES SALMONELLA TYPHIMURIUM, Strain/Indicator: TA98, Metabolic Activation: NONE, Method: STANDARD PLATE.
[2] abbreviates: Test System: AMES SALMONELLA TYPHIMURIUM, Strain/Indicator: TA100, Metabolic Activation: NONE, Method: STANDARD PLATE.

Consider `CC(N)=S`, for which the mutagenic call is, setting by setting: (Test System: AMES SALMONELLA TYPHIMURIUM, Strain/Indicator: TA102, Metabolic Activation: RAT LIVER S-9, PHENOBARBITAL AND 5,6-BENZOFLAVONE, Method: STANDARD PLATE) “inactive; negative”; (Test System: AMES SALMONELLA TYPHIMURIUM, Strain/Indicator: TA2638, Metabolic Activation: RAT LIVER S-9, PHENOBARBITAL AND 5,6-BENZOFLAVONE, Method: STANDARD PLATE) “inactive; negative”; (Test System: E. COLI, Strain/Indicator: WP2 (PKM101), Metabolic Activation: RAT LIVER S-9, PHENOBARBITAL AND 5,6-BENZOFLAVONE, Method: STANDARD PLATE) “inactive; negative”; (Test System: E. COLI, Strain/Indicator: WP2 UVRA (PKM101), Metabolic Activation: RAT LIVER S-9, PHENOBARBITAL AND 5,6-BENZOFLAVONE, Method: STANDARD PLATE) “inactive; negative”; (Test System: E. COLI, Strain/Indicator: WP2 UVRA, Metabolic Activation: HAMSTER, LIVER, S-9, AROCLOR 1254, Method: STANDARD PLATE) “inactive; negative”; (Test System: E. COLI, Strain/Indicator: WP2 UVRA, Metabolic Activation: HAMSTER, LIVER, S-9, Method: STANDARD PLATE) “inactive; negative”. The mutagenic call reads like this: (Test System: E. COLI, Strain/Indicator: WP2 UVRA, Metabolic Activation: MOUSE, LIVER, S-9, AROCLOR 1254, Method: STANDARD PLATE) “inactive; negative”; (Test System: E. COLI, Strain/Indicator: WP2 UVRA, Metabolic Activation: MOUSE, LIVER, S-9, Method: STANDARD PLATE) “inactive; negative”; (Test System: E. COLI, Strain/Indicator: WP2 UVRA, Metabolic Activation: NONE, Method: STANDARD PLATE) “inactive; negative”; (Test System: E. COLI, Strain/Indicator: WP2 UVRA, Metabolic Activation: RAT, LIVER, S-9, AROCLOR 1254, Method: STANDARD PLATE) “inactive; negative”; (Test System: E. COLI, Strain/Indicator: WP2 UVRA, Metabolic Activation: RAT, LIVER, S-9, Method: STANDARD PLATE) “inactive; negative”; (Test System: MOUSE LYMPHOMA, Strain/Indicator: L5178Y (TK+/TK-), Metabolic Activation: NONE, Method: SUSPENSION/PLATE) “active; positive”. Moreover, the mutagenic call reads like this: (Test System: MOUSE LYMPHOMA, Strain/Indicator: L5178Y (TK+/TK-), Metabolic Activation: RAT, LIVER, S-9, AROCLOR 1254, Method: SUSPENSION/PLATE) “active; positive”; (Test System: MOUSE LYMPHOMA, Strain/Indicator: L5178Y (TK+/TK-), Metabolic Activation: RAT, LIVER, S-9, Method: SUSPENSION/PLATE) “inactive; negative”.

Consider `CN(CCCl)c1ccc(/C=C/C2=[N+](C)c3ccccc3C2(C)C)cc1`, for which the mutagenic call (Test System: Ames Salmonella typhimurium, Strain/Indicator: TA98, Metabolic Activation: None, Method: Preincubation) was “inactive; negative”; the mutagenic call (Test System: Ames Salmonella typhimurium, Strain/Indicator: TA98, Metabolic Activation: Rat, Liver, S-9, Aroclor 1254, Method: Preincubation) is “inactive; negative”; the mutagenic call (Test System: Ames Salmonella typhimurium, Strain/Indicator: TA100, Metabolic Activation: None, Method: Preincubation) is “inactive; negative”; the mutagenic call (Test System: Ames Salmonella typhimurium, Strain/Indicator: TA100, Metabolic Activation: Rat, Liver, S-9, Aroclor 1254, Method: Preincubation) was “inactive; negative”; the mutagenic call (Test System: Ames Salmonella typhimurium, Strain/Indicator: TA102, Metabolic Activation: None, Method: Preincubation) is “inactive; negative”; the mutagenic call (Test System: Ames Salmonella typhimurium, Strain/Indicator: TA102, Metabolic Activation: Rat, Liver, S-9, Aroclor 1254, Method: Preincubation) is “inactive; negative”. Moreover, the mutagenic call runs as follows: (Test System: Ames Salmonella typhimurium, Strain/Indicator: TA1535, Metabolic Activation: None, Method: Preincubation) “inactive; negative”; (Test System: Ames Salmonella typhimurium, Strain/Indicator: TA1535, Metabolic Activation: Rat, Liver, S-9, Aroclor 1254, Method: Preincubation) “inactive; negative”.

For the molecule `Cc1cc([N+](=O)[O-])c(C)c2c1[nH]c1ccc([N+](=O)[O-])cc12`, the mutagenic call was “active; positive” under setting [1]; “active; positive” (Test System: AMES SALMONELLA TYPHIMURIUM, Strain/Indicator: TA98, Metabolic Activation: RAT LIVER S-9, AROCLOR 1254, Method: STANDARD PLATE); “active; positive” under setting [2]; “active; positive” (Test System: AMES SALMONELLA TYPHIMURIUM, Strain/Indicator: TA100, Metabolic Activation: RAT LIVER S-9, AROCLOR 1254, Method: STANDARD PLATE); “active; positive” (Test System: AMES SALMONELLA TYPHIMURIUM, Strain/Indicator: TA1537, Metabolic Activation: NONE, Method: STANDARD PLATE); “active; positive” (Test System: AMES SALMONELLA TYPHIMURIUM, Strain/Indicator: TA1537, Metabolic Activation: RAT LIVER S-9, AROCLOR 1254, Method: STANDARD PLATE). For the same molecule, the mutagenic call (Test System: AMES SALMONELLA TYPHIMURIUM, Strain/Indicator: TA1977, Metabolic Activation: NONE, Method: STANDARD PLATE) is “active; positive” and the mutagenic call (Test System: AMES SALMONELLA TYPHIMURIUM, Strain/Indicator: TA1977, Metabolic Activation: RAT LIVER S-9, AROCLOR 1254, Method: STANDARD PLATE) was “active; positive”.

Regarding `O=[N+]([O-])c1ccc2ccc3c([N+](=O)[O-])c4ccccc4c4ccc1c2c34`, the mutagenic call is “active; positive” (Test System: AMES SALMONELLA TYPHIMURIUM, Strain/Indicator: TA98(1,8-DNP6), Metabolic Activation: NONE); “active; positive” (Test System: AMES SALMONELLA TYPHIMURIUM, Strain/Indicator: TA98(NR), Metabolic Activation: NONE); “active; positive” (Test System: AMES SALMONELLA TYPHIMURIUM, Strain/Indicator: TA98(NR), Metabolic Activation: NONE, Method: PREINCUBATION); “active; positive” (Test System: AMES SALMONELLA TYPHIMURIUM, Strain/Indicator: TA98, Metabolic Activation: NONE); “active; positive” (Test System: AMES SALMONELLA TYPHIMURIUM, Strain/Indicator: TA98, Metabolic Activation: NONE, Method: PREINCUBATION); “active; positive” under setting [1]. The mutagenic call under setting [2] was “active; positive”.

As to `O=C(OCC1CCC2OC2C1)C1CCC2OC2C1` (stereo not given), the mutagenic call runs as follows: (Test System: AMES SALMONELLA TYPHIMURIUM, Strain/Indicator: TA97A, Metabolic Activation: NONE, Method: STANDARD PLATE) “inactive; negative”; (Test System: AMES SALMONELLA TYPHIMURIUM, Strain/Indicator: TA97A, Metabolic Activation: RAT LIVER S-9, PHENOBARBITAL AND BETA-NAPHTHOFLAVONE (10%), Method: STANDARD PLATE) “inactive; negative”; under setting [1], “inactive; negative”; (Test System: AMES SALMONELLA TYPHIMURIUM, Strain/Indicator: TA98, Metabolic Activation: RAT LIVER S-9, PHENOBARBITAL AND BETA-NAPHTHOFLAVONE (10%), Method: STANDARD PLATE) “inactive; negative”; under setting [2], “inactive; negative”; (Test System: AMES SALMONELLA TYPHIMURIUM, Strain/Indicator: TA100, Metabolic Activation: RAT LIVER S-9, PHENOBARBITAL AND BETA-NAPHTHOFLAVONE (10%), Method: STANDARD PLATE) “active; positive”. Also, the mutagenic call by setting is: (Test System: AMES SALMONELLA TYPHIMURIUM, Strain/Indicator: TA102, Metabolic Activation: NONE, Method: STANDARD PLATE) “inactive; negative”; (Test System: AMES SALMONELLA TYPHIMURIUM, Strain/Indicator: TA102, Metabolic Activation: RAT LIVER S-9, PHENOBARBITAL AND BETA-NAPHTHOFLAVONE (10%), Method: STANDARD PLATE) “inactive; negative”.
